Source: patent US20230210797A1, “PREVENTING AND TREATING HYPOGLYCEMIA” (DIAMYD MEDICAL AB, priority 2019, published 2023)
“Also recorded” adds a separate entry of the source.

Tests used:
cortisol = test: Hypoglycemic clamp: plasma cortisol levels; type: in vivo, human; conditions: dose escalation part; oral GABA; type 1 diabetes patients with undetectable c-peptide
Procedure: (§1) In order to evaluate the counterregulatory hormone response to hypoglycemia, a hypoglycemic clamp will be performed. The Hypoglycemic Clamp must be performed according to the instructions in the Operations Manual. (Appendix 3)
(§2) The patient should: • Come to the study site following an overnight fast (>10 hours), i.e. the patient may not eat but is permitted to drink water • Not have taken the Remygen and, if applicable, Alprazolam dose in the morning • Not take short acting/direct acting insulin within 6 hours before the investigation. • The patient is allowed to take base-insulin day/night before, but not in the morning before the investigation.
(§3) Patients with CSII (insulin pump) must continue with their basal dose insulin, but not add bolus dose during the last 6 hours before the investigation.
(§4) If a patient has a blood sugar level <4 mmol/L in the morning of the scheduled visit, the patient is allowed to take dextrose tablets and then come to the study site. The patient is allowed to perform the investigation if the blood sugar level is >4 mmol/L.
(§5) In the dose-escalation part of the study, the patient will take study drug 30 min prior to start of the hypoglycemic clamp. In the main study, the study drug will instead be taken after finalization of the hypoglycemic clamp. Baseline blood samples will be obtained for glucose, glucagon, epinephrine, norepinephrine, growth hormone and cortisol. The clamp will then be initiated by an intravenous insulin infusion at a rate of 2 mU×kg^−1×min^−1. Glucose 100 mg/ml will then be administered in variable infusion rates to clamp the blood glucose concentration at 5.5 mmol/land then at 2.5 mmol/land kept stable for 30 min. Blood glucose will be evaluated repeatedly in order to find the optimal glucose infusion rate. Blood sampling to determined levels of counterregulatory hormones as described above will be performed at each of these target levels when a stable glucose concentration has been reached. The insulin infusion will thereafter be terminated and the patient is allowed to eat and will be observed until normoglycemia is achieved. If necessary, additional glucose administration will be given to allow blood glucose concentrations to normalize.
(§6) Only patients with c-peptide levels that were undetectable (in a standard assay, i.e. <0.01 nmol/L) are included (5 of 6) in the data below.
(§7) Plasma levels of glucagon, cortisol, epinephrine, growth hormone and glucose were measured at baseline (increased glucose in T1D subjects). Plasma glucose was first lowered to normoglycemic levels (5.5 mmol/L) and hormone levels monitored, and then to hypoglycemic levels (2.5 mmol/L) and hormone levels monitored. Difference was calculated as a measurement of the response to hypoglycemia.

norepinephrine = test: Hypoglycemic clamp: plasma norepinephrine levels; type: in vivo, human; conditions: for Norepinephrine, change from baseline, Mean (SD) / Norepinephrine, change from baseline, Median (Min, Max) / Norepinephrine, observed value, Mean (SD) / Norepinephrine, observed value, Median (Min, Max): C-peptide undetectable, n=5
Procedure: as §1, §2, §3, §4, §5, §6, §7

[1] = Visit 5, 200 mg GABA per day, event 2.5 mmol/L
[2] = Visit 5, 200 mg GABA per day, event 5.5 mmol/L
[3] = Visit 5, 200 mg GABA per day, event Baseline
[4] = Visit 5, 200 mg GABA per day, event Diff 2.5-5.5 mmol/L
[5] = Visit 7, 600 mg GABA per day, event 2.5 mmol/L
[6] = Visit 7, 600 mg GABA per day, event 5.5 mmol/L
[7] = Visit 7, 600 mg GABA per day, event Baseline
[8] = Visit 7, 600 mg GABA per day, event Diff 2.5-5.5 mmol/L
[9] = Visit 9, 1200 mg GABA per day, event 2.5 mmol/L
[10] = Visit 9, 1200 mg GABA per day, event 5.5 mmol/L
[11] = Visit 9, 1200 mg GABA per day, event Baseline
[12] = Visit 9, 1200 mg GABA per day, event Diff 2.5-5.5 mmol/L

NCCCC(=O)O [GABA, Gamma-amino butyric acid]
Baseline (no clamp) Cortisol levels, effect of GABA treatment (cortisol): downregulated; also recorded: decrease
Norepinephrine, change from baseline, Mean (SD) (norepinephrine; [1]): −0.44 (0.61) nmol(L
Norepinephrine, change from baseline, Median (Min, Max) (norepinephrine; [1]): −0.30 (−1.3, 0.2) nmol(L
Norepinephrine, observed value, Mean (SD) (norepinephrine; [1]): 1.82 (0.41) nmol(L
Norepinephrine, observed value, Median (Min, Max) (norepinephrine; [1]): 1.90 (1.4, 2.3) nmol(L
Norepinephrine, change from baseline, Mean (SD) (norepinephrine; [2]): −0.16 (0.52) nmol(L
Norepinephrine, change from baseline, Median (Min, Max) (norepinephrine; [2]): 0.00 (−0.9, 0.5) nmol(L
Norepinephrine, observed value, Mean (SD) (norepinephrine; [2]): 1.78 (0.52) nmol(L
Norepinephrine, observed value, Median (Min, Max) (norepinephrine; [2]): 1.60 (1.2, 2.5) nmol(L
Norepinephrine, change from baseline, Mean (SD) (norepinephrine; [3]): −0.34 (0.53) nmol(L
Norepinephrine, change from baseline, Median (Min, Max) (norepinephrine; [3]): −0.50 (−0.9, 0.5) nmol(L
Norepinephrine, observed value, Mean (SD) (norepinephrine; [3]): 1.46 (0.35) nmol(L
Norepinephrine, observed value, Median (Min, Max) (norepinephrine; [3]): 1.50 (1.1, 2.0) nmol(L
Norepinephrine, change from baseline, Mean (SD) (norepinephrine; [4]): −0.28 (0.59) nmol(L
Norepinephrine, change from baseline, Median (Min, Max) (norepinephrine; [4]): 0.00 (−1.3, 0.1) nmol(L
Norepinephrine, observed value, Mean (SD) (norepinephrine; [4]): 0.04 (0.29) nmol(L
Norepinephrine, observed value, Median (Min, Max) (norepinephrine; [4]): 0.20 (−0.4, 0.3) nmol(L
Norepinephrine, change from baseline, Mean (SD) (norepinephrine; [5]): −0.56 (0.73) nmol(L
Norepinephrine, change from baseline, Median (Min, Max) (norepinephrine; [5]): −0.50 (−1.6, 0.3) nmol(L
Norepinephrine, observed value, Mean (SD) (norepinephrine; [5]): 1.70 (0.27) nmol(L
Norepinephrine, observed value, Median (Min, Max) (norepinephrine; [5]): 1.70 (1.4, 2.1) nmol(L
Norepinephrine, change from baseline, Mean (SD) (norepinephrine; [6]): −0.10 (0.31) nmol(L
Norepinephrine, change from baseline, Median (Min, Max) (norepinephrine; [6]): −0.10 (−0.4, 0.3) nmol(L
Norepinephrine, observed value, Mean (SD) (norepinephrine; [6]): 1.84 (0.34) nmol(L
Norepinephrine, observed value, Median (Min, Max) (norepinephrine; [6]): 2.00 (1.3, 2.1) nmol(L
Norepinephrine, change from baseline, Mean (SD) (norepinephrine; [7]): −0.32 (0.49) nmol(L
Norepinephrine, change from baseline, Median (Min, Max) (norepinephrine; [7]): −0.30 (−0.9, 0.4) nmol(L
Norepinephrine, observed value, Mean (SD) (norepinephrine; [7]): 1.48 (0.70) nmol(L
Norepinephrine, observed value, Median (Min, Max) (norepinephrine; [7]): 1.20 (1.0, 2.7) nmol(L
Norepinephrine, change from baseline, Mean (SD) (norepinephrine; [8]): −0.46 (0.50) nmol(L
Norepinephrine, change from baseline, Median (Min, Max) (norepinephrine; [8]): −0.50 (−1.2, 0.0) nmol(L
Norepinephrine, observed value, Mean (SD) (norepinephrine; [8]): −0.14 (0.27) nmol(L
Norepinephrine, observed value, Median (Min, Max) (norepinephrine; [8]): −0.30 (−0.4, 0.2) nmol(L
Norepinephrine, change from baseline, Mean (SD) (norepinephrine; [9]): −0.66 (0.68) nmol(L
Norepinephrine, change from baseline, Median (Min, Max) (norepinephrine; [9]): −0.70 (−1.6, 0.0) nmol(L
Norepinephrine, observed value, Mean (SD) (norepinephrine; [9]): 1.60 (0.42) nmol(L
Norepinephrine, observed value, Median (Min, Max) (norepinephrine; [9]): 1.60 (1.2, 2.2) nmol(L
Norepinephrine, change from baseline, Mean (SD) (norepinephrine; [10]): −0.46 (0.84) nmol(L
Norepinephrine, change from baseline, Median (Min, Max) (norepinephrine; [10]): −0.20 (−1.7, 0.4) nmol(L
Norepinephrine, observed value, Mean (SD) (norepinephrine; [10]): 1.48 (0.50) nmol(L
Norepinephrine, observed value, Median (Min, Max) (norepinephrine; [10]): 1.40 (0.8, 2.2) nmol(L
Norepinephrine, change from baseline, Mean (SD) (norepinephrine; [11]): −0.58 (0.59) nmol(L
Norepinephrine, change from baseline, Median (Min, Max) (norepinephrine; [11]): −0.50 (−1.3, 0.2) nmol(L
Norepinephrine, observed value, Mean (SD) (norepinephrine; [11]): 1.22 (0.35) nmol(L
Norepinephrine, observed value, Median (Min, Max) (norepinephrine; [11]): 1.00 (0.9, 1.6) nmol(L
Norepinephrine, change from baseline, Mean (SD) (norepinephrine; [12]): −0.20 (0.55) nmol(L
Norepinephrine, change from baseline, Median (Min, Max) (norepinephrine; [12]): −0.40 (−0.7, 0.7) nmol(L
Norepinephrine, observed value, Mean (SD) (norepinephrine; [12]): 0.12 (0.41) nmol(L
Norepinephrine, observed value, Median (Min, Max) (norepinephrine; [12]): 0.00 (−0.2, 0.8) nmol(L
Normoglycemic levels of norepinephrine, effect of GABA treatment (norepinephrine; clamped to 5.5 mmol/L): decrease
Baseline (no clamp) norepinephrine levels, effect of GABA treatment (norepinephrine; dose escalation part, oral GABA, type 1 diabetes patients with undetectable c-peptide): downregulated; also recorded: decrease
